Reference: ChEMBL document CHEMBL4190365, “Synthesis and antiproliferative properties of new hydrophilic esters of triterpenic acids” (Eur J Med Chem, 2017)

Tests used:
Format in all cases: functional, cell-based
G-361 = assay: Cytotoxicity in human G361 cells assessed as reduction in cell viability incubated for 72 hrs by calcein AM cytotoxicity assay
MCF7 = assay: Cytotoxicity in human MCF7 cells assessed as reduction in cell viability incubated for 72 hrs by calcein AM cytotoxicity assay
HeLa = assay: Cytotoxicity in human HeLa cells assessed as reduction in cell viability incubated for 72 hrs by calcein AM cytotoxicity assay
BJ = assay: Cytotoxicity in human BJ cells assessed as reduction in cell viability incubated for 72 hrs by calcein AM cytotoxicity assay
CCRF-CEM = assay: Cytotoxicity in human CEM cells assessed as reduction in cell viability incubated for 72 hrs by calcein AM cytotoxicity assay; details: Homo sapiens, CCRF-CEM, 72 h

Row | SMILES | IC50 (G-361; Homo sapiens, G-361, 72 h) [µM] | IC50 (MCF7; Homo sapiens, MCF7, 72 h) [µM] | IC50 (HeLa; Homo sapiens, HeLa, 72 h) [µM] | IC50 (BJ; Homo sapiens, BJ, 72 h) [µM] | IC50 (CCRF-CEM) [µM] | IC50 (G-361; g-361) [µM] | IC50 (MCF7; mcf7) [µM] | IC50 (HeLa; hela) [µM] | IC50 (BJ; bj) [µM]
1 | CC(=O)OC[C@@]1(C(=O)OCC(=O)O)CC[C@]2(C)[C@H](CC[C@@H]3[C@@]4(C)CC[C@H](OC(C)=O)C(C)(C)[C@@H]4CC[C@]32C)C1=O | > 50 | > 50 | > 50 | 7 | 32.4 | – | – | – | –
2 | CC(=O)O[C@H]1CC[C@]2(C)[C@H]3CC[C@@H]4C5=C(C(C)C)C(=O)C[C@]5(C(=O)OCCN5CCOCC5)CC[C@@]4(C)[C@]3(C)CC[C@H]2C1(C)C | 7 | 14.5 | 16.1 | 42.5 | 12.6 | – | – | – | –
3 | CC(=O)OC[C@H]1O[C@@H](OC(=O)[C@]2(COC(C)=O)CC[C@]3(C)[C@H](CC[C@@H]4[C@@]5(C)CC[C@H](OC(C)=O)C(C)(C)[C@@H]5CC[C@]43C)[C@@H]2O)[C@H](OC(C)=O)[C@@H](OC(C)=O)[C@H]1OC(C)=O | > 50 | > 50 | > 50 | > 50 | > 50 | – | – | – | –
4 | COCCOCCOC(=O)[C@]12CC[C@@H](C(C)C)[C@@H]1[C@H]1CC[C@@H]3[C@@]4(C)CC[C@H](O)C(C)(C)[C@@H]4CC[C@@]3(C)[C@]1(C)CC2 | 24 | 31.3 | 26.4 | 30.5 | 32.3 | – | – | – | –
5 | COCCOCCOC(=O)[C@]1(COC(C)=O)CC[C@]2(C)[C@H](CC[C@@H]3[C@@]4(C)CC[C@H](OC(C)=O)C(C)(C)[C@@H]4CC[C@]32C)C1=O | > 50 | > 50 | > 50 | > 50 | > 50 | – | – | – | –
6 | CC(=O)OC[C@H]1O[C@@H](OC(=O)[C@]2(COC(C)=O)CC[C@]3(C)[C@H](CC[C@@H]4[C@@]5(C)CC[C@H](OC(C)=O)C(C)(C)[C@@H]5CC[C@]43C)[C@@H]2O)[C@H](OC(C)=O)[C@@H](OC(C)=O)[C@@H]1OC(C)=O | > 50 | > 50 | > 50 | 43 | > 50 | – | – | – | –
7 | C=C(C=O)[C@@H]1CC[C@]2(C(=O)OCCN3CCOCC3)CC[C@]3(C)[C@H](CC[C@@H]4[C@@]5(C)CC[C@H](O)C(C)(C)[C@@H]5CC[C@]43C)[C@@H]12 | 5.3 | 2.2 | 11 | 19.2 | 3.8 | – | – | – | –
8 | COCCOC(=O)[C@]1(COC(C)=O)CC[C@]2(C)[C@H](CC[C@@H]3[C@@]4(C)CC[C@H](OC(C)=O)C(C)(C)[C@@H]4CC[C@]32C)C1=O | > 50 | > 50 | > 50 | > 50 | > 50 | – | – | – | –
9 | CC(=O)OC[C@@]1(C(=O)OCCBr)CC[C@]2(C)[C@H](CC[C@@H]3[C@@]4(C)CC[C@H](OC(C)=O)C(C)(C)[C@@H]4CC[C@]32C)[C@@H]1O | > 50 | > 50 | > 50 | > 50 | > 50 | – | – | – | –
10 | CC(C)[C@@H]1CC[C@]2(C(=O)OCCBr)CC[C@]3(C)[C@H](CC[C@@H]4[C@@]5(C)CC[C@H](O)C(C)(C)[C@@H]5CC[C@]43C)[C@@H]12 | 43.1 | 45.9 | 21.3 | 36.7 | 35.4 | – | – | – | –
11 | COCCOC(=O)[C@]12CC[C@@H](C(C)C)[C@@H]1[C@H]1CC[C@@H]3[C@@]4(C)CC[C@H](O)C(C)(C)[C@@H]4CC[C@@]3(C)[C@]1(C)CC2 | 38.6 | 44.4 | 21.5 | 26.5 | 38.4 | – | – | – | –
12 | CC(=O)O[C@H]1CC[C@]2(C)[C@H]3CC[C@@H]4C5=C(C(C)C)C(=O)C(=O)[C@]5(C(=O)OCCN5CCOCC5)CC[C@@]4(C)[C@]3(C)CC[C@H]2C1(C)C | 2.2 | 18.3 | 5.5 | 25.3 | 8.1 | – | – | – | –
13 | C=C(C)[C@@H]1CC[C@]2(C(=O)OCCN3CCCCC3)CC[C@]3(C)[C@H](CC[C@@H]4[C@@]5(C)CC[C@H](O)C(C)(C)[C@@H]5CC[C@]43C)[C@@H]12 | – | – | – | – | 21.5 | 33.8 | 33.5 | 24.7 | 45.9
14 | CC(=O)OC[C@H]1O[C@@H](OC(=O)[C@@]23CC[C@]4(C)[C@H](CC[C@@H]5[C@@]6(C)CC[C@H](OC(C)=O)C(C)(C)[C@@H]6CC[C@]54C)C2=C(C(C)C)C(=O)C3)[C@H](OC(C)=O)[C@@H](OC(C)=O)[C@@H]1OC(C)=O | 4.3 | 3.8 | 9.8 | > 50 | 9.1 | – | – | – | –
15 | CC(C)[C@@H]1CC[C@]2(C(=O)OCC(=O)O)CC[C@]3(C)[C@H](CC[C@@H]4[C@@]5(C)CC[C@H](O)C(C)(C)[C@@H]5CC[C@]43C)[C@@H]12 | > 50 | > 50 | > 50 | > 50 | > 50 | – | – | – | –
16 | CC(=O)OC[C@H]1O[C@@H](OC(=O)[C@@]23CC[C@]4(C)[C@H](CC[C@@H]5[C@@]6(C)CC[C@H](OC(C)=O)C(C)(C)[C@@H]6CC[C@]54C)C2=C(C(C)C)C(=O)C3)[C@H](OC(C)=O)[C@@H](OC(C)=O)[C@H]1OC(C)=O | 3.1 | 3.7 | 44.3 | 31.8 | 4.5 | – | – | – | –
17 | COCCOCCOC(=O)[C@@]12CC[C@]3(C)[C@H](CC[C@@H]4[C@@]5(C)CC[C@H](OC(C)=O)C(C)(C)[C@@H]5CC[C@]43C)C1=C(C(C)C)C(=O)C2 | 11.8 | 21.9 | 17.1 | > 50 | 17.6 | – | – | – | –
18 | CC(C)[C@@H]1CC[C@]2(C(=O)OCC(=O)OCc3ccccc3)CC[C@]3(C)[C@H](CC[C@@H]4[C@@]5(C)CC[C@H](O)C(C)(C)[C@@H]5CC[C@]43C)[C@@H]12 | > 50 | > 50 | > 50 | > 50 | 24.1 | – | – | – | –
19 | C=C(C)[C@@H]1CC[C@]2(C(=O)OCCOC)CC[C@]3(C)[C@H](CC[C@@H]4[C@@]5(C)CC[C@H](O)C(C)(C)[C@@H]5CC[C@]43C)[C@@H]12 | 30.3 | 35.2 | 32.4 | 43.7 | 32.8 | – | – | – | –
